Measurements published in publication PMC6627374, “Effects of the Pentapeptide P33 on Memory and Synaptic Plasticity in APP/PS1 Transgenic Mice: A Novel Mechanism Presenting the Protein Fe65 as a Target” (International Journal of Molecular Sciences, 2019).
Where a SMILES comes first, the peptide text is derived from it.

System: PSD95
Experiment: Western blot, PSD95 level
Format: in vivo, mouse
Details: APP/PS1 mice; 5 mg∙kg^−1 i.p., five days per week, six months
Experimental: For this study, three-month-old male and female WT and APP/PS1 mice (n = 37) were used. Four groups were defined: WT-vehicle (physiological saline) (male n = 4; female n = 6), WT-P33 (male n = 6; female n = 5), APP/PS1-vehicle (male n = 3; female n = 5), and APP/PS1-P33 (male n = 6; female n = 2). Animals were subjected to intraperitoneal (i.p.) injections of P33 (5 mg∙kg^−1) for five days per week, over a course of six months. The mice were kept in groups under constant temperature (23 ± 0.5 °C), lighting (12-h/12-h light/dark cycle, lights on at 7:00 a.m.), and humidity (~50%). Standard mouse chow and tap water were supplied ad libitum. All behavioral experiments were performed in the light period. […]
Protein samples, identically prepared as for ELISA, (20 μg/lane) were separated on a 15% SDS-polyacrylamide gel (80 V, 20 min at RT; than 130 V, 60 min at RT) or on a 4–12% NuPAGE® Bis-Tris Gel (Thermo Fischer Scientific, Waltham, MA, USA, 200V, 30 min at RT) and transferred to a nitrocellulose membrane (Whatman, Maidstone, UK, 450 mA, 90 min at 4 °C). […] Membranes were scanned with a Bio-Rad Molecular Imager® ChemiDoc™ XRS+Imaging System (Bio-Rad Laboratories, Hercules, CA, USA) and evaluated with the Image Lab 4.0 software.
The results of spine density and immunohistochemistry experiments were calculated with one-way ANOVA followed by Fisher’s LSD post hoc tests. […]

With `C[C@@H](N)C(=O)N1CCC[C@@H]1C(=O)N[C@H](C)C(=O)N1CCC[C@@H]1C(=O)N[C@H](CCC(=O)O)C(N)=O` [P33] (HELM PEPTIDE1{[dA].[dP].[dA].[dP].[dE].[am]}$$$$V2.0) the “PSD95 level, effect of P33 (in words)” value was “could be restored by applying P33 on APP/PS1 mice”.
